Laboratory results as given in patent US9227923B2, “Pesticidal carboxamides” (Bayer Intellectual Property GmbH, priority 2009, dated 2016).

Legend:
[1] = system: Tobacco Cutworm (Spodoptera litura) Larvae; experiment: Test against tobacco cutworm (Spodoptera litura) larvae, leaf dip; format: in vivo; conditions: active compound concentration of 100 ppm, third instar larvae, after 7 days; for pest or weed control at 100 ppm: Spodoptera litura, foliar, 168 h, read-out: insecticidal activity
Description: (§1) Solvent: 3 parts by weight of dimethylformamide
(§2) Emulsifier: 1 part by weight of polyoxyethylene alkyl phenyl ether
Leaves of sweet potato were immersed in the test solution at the appropriate concentration, and the leaves were dried in air. The leaves were then placed in a petri dish having a diameter of 9 cm, and ten Spodoptera litura at third instar larvae were released therein. The petri dishes were placed in a temperature-controlled chamber at 25° C. After 2 days and 4 days more sweet potato leaves were added. After 7 days, the number of dead larvae was counted to calculate the insecticidal activity. An insecticidal activity of 100% means that all larvae were killed, whereas an insecticidal activity of 0% means that no larva was killed.

[2] = system: Cucurbit Leaf Beetle (Aulacophora Femoralis); experiment: Test against cucurbit leaf beetle (Aulacophora femoralis), leaf dip; format: in vivo; conditions: active compound concentration of 100 ppm, second instar larvae, after 7 days
Description: as §1, §2
Leaves of cucumber were immersed in the test solution at the appropriate concentration, and the leaves were dried in air. The leaves were then put in a plastic cup containing sterilized black soil and five Aulacophora femoralis at second instar larvae were released in the cup. The cups were placed in a temperature-controlled chamber at 25° C. After 7 days, the number of dead larvae was counted, and thus the insecticidal activity was calculated. An insecticidal activity of 100% means that all larvae were killed, whereas an insecticidal activity of 0% means that no larva was killed.

`O=C(Nc1c(Cl)cc(C(F)(C(F)(F)F)C(F)(F)F)cc1Cl)c1ccc(CNC(=O)C2CC2)c(Cl)c1` [Compound 5-231] gave an insecticidal activity [1] of 100% and an insecticidal activity [2] of 100%.
`CCc1cc(C(F)(C(F)(F)F)C(F)(F)F)cc(C)c1NC(=O)c1ccc(CNC(=O)CC(F)(F)F)c2ccccc12` [Compound 6-6] gave an insecticidal activity [1] of 100% and an insecticidal activity [2] of 100%.
`CCC(=O)NCc1ccc(C(=O)Nc2c(Cl)cc(C(F)(C(F)(F)F)C(F)(F)C(F)(F)F)cc2Cl)cc1` (stereo not shown) [Compound 5-323] was tested, and the insecticidal activity [1] was 100% and the insecticidal activity [2] was 100%.
Molecule `O=C(CC(F)(F)F)NCc1ccc(C(=O)Nc2c(Cl)cc(C(F)(C(F)(F)F)C(F)(F)F)cc2Cl)cc1` [Compound 5-226] has an insecticidal activity [2] of 100%.
`N#Cc1ccc(C(=O)Nc2c(Br)cc(C(F)(C(F)(F)F)C(F)(F)F)cc2Br)cc1` [Compound I-26] showed an insecticidal activity [1] of 100% and an insecticidal activity [2] of 100%.
For `CCc1cc(C(F)(C(F)(F)F)C(F)(F)C(F)(F)F)cc(C)c1NC(=O)c1ccc(CNC(=O)CC(F)(F)F)c(F)c1F` (stereo not shown) [Compound 5-205], the insecticidal activity [1] was 100% and the insecticidal activity [2] was 100%.
With `N#Cc1ccc(C(=O)Nc2c(Cl)cc(C(F)(C(F)(F)F)C(F)(F)F)cc2Cl)cc1` [Compound I-24] the insecticidal activity [1] was 100% and the insecticidal activity [2] was 100%.
Work on `CCc1cc(C(F)(C(F)(F)F)C(F)(F)C(F)(F)F)cc(C)c1NC(=O)c1ccc(CNC(=O)c2cccnc2Cl)c(F)c1F` (stereo not shown) [Compound 5-206] yielded an insecticidal activity [1] of 100% and an insecticidal activity [2] of 100%.
In the case of `CCC(=O)NCc1ccc(C(=O)Nc2c(C)cc(C(F)(C(F)(F)F)C(F)(F)C(F)(F)F)cc2C)cc1Br` (stereo not shown) [Compound 5-212], the insecticidal activity [1] is reported as 100% and the insecticidal activity [2] is reported as 100%.
`CCC(=O)NCc1ccc(C(=O)Nc2c(C)cc(C(F)(C(F)(F)F)C(F)(F)C(F)(F)F)cc2CC)cc1F` (stereo not shown) [Compound 5-145] was tested, and the insecticidal activity [1] was 100% and the insecticidal activity [2] was 100%.
For `N#Cc1ccc(C(=O)Nc2c(Cl)cc(C(F)(C(F)(F)F)C(F)(F)C(F)(F)F)cc2Cl)cc1` (stereo not shown) [Compound I-27], the insecticidal activity [1] was 100% and the insecticidal activity [2] was 100%.
In the case of `CC(=O)NCc1ccc(C(=O)Nc2c(C)cc(C(F)(C(F)(F)F)C(F)(F)F)cc2C)c(F)c1` [Compound 5-21], the insecticidal activity [1] is reported as 100% and the insecticidal activity [2] is reported as 100%.
With `CCC(=O)NCc1cc(F)c(C(=O)Nc2c(C)cc(C(F)(C(F)(F)F)C(F)(F)F)cc2CC)cc1F` [Compound 5-59] the insecticidal activity [1] was 100% and the insecticidal activity [2] was 100%.
Molecule `CCc1cc(C(F)(C(F)(F)F)C(F)(F)F)cc(C)c1NC(=O)c1ccc(CNC(=O)c2cccc(F)c2)cc1` [Compound 5-35] has an insecticidal activity [1] of 100% and an insecticidal activity [2] of 100%.
`CCc1cc(C(F)(C(F)(F)F)C(F)(F)F)cc(C)c1NC(=O)c1ccc(CNS(C)(=O)=O)c(Br)c1` [Compound 5-96] showed an insecticidal activity [1] of 100% and an insecticidal activity [2] of 100%.
In the case of `CCc1cc(C(F)(C(F)(F)F)C(F)(F)F)cc(C)c1NC(=O)c1ccc2c(c1)CCC2NC(=O)CSC` (stereo not shown) [Compound 10-22], the insecticidal activity [1] is reported as 100% and the insecticidal activity [2] is reported as 100%.
In the case of `CCc1cc(C(F)(C(F)(F)F)C(F)(F)F)cc(C)c1NC(=O)c1cc(F)c(CNC(=O)c2cccnc2Cl)cc1F` [Compound 5-183], the insecticidal activity [1] is reported as 100% and the insecticidal activity [2] is reported as 100%.
With `CCC(=O)NCc1ccc(C(=O)Nc2c(C)cc(C(F)(C(F)(F)F)C(F)(F)F)cc2CC)cc1C` [Compound 5-100] the insecticidal activity [1] was 100% and the insecticidal activity [2] was 100%.
`CCc1cc(C(F)(C(F)(F)F)C(F)(F)F)cc(C)c1NC(=O)c1ccc(CNC(C)=O)cn1` [Compound 7-2] was tested, and the insecticidal activity [1] was 100% and the insecticidal activity [2] was 100%.
`CC(=O)NCc1ccc(C(=O)Nc2c(Cl)cc(C(F)(C(F)(F)F)C(F)(F)F)cc2Cl)cc1Cl` [Compound 5-229, 4-(acetamidemethyl)-3-chloro-N-[2,6-dichloro-4-(1,1,1,2,3,3,3-heptafluoropropan-2-yl)phenyl]benzamide] showed a pest or weed control at 100 ppm [1] of 100% and a pest or weed control at 100 ppm ([2]; Aulacophora, foliar, 168 h, read-out: insecticidal activity) of 100%.
Molecule `CCc1cc(C(F)(C(F)(F)F)C(F)(F)F)cc(C)c1NC(=O)c1ccc(CNC(C)=O)c(F)c1F` [Compound 5-51] has an insecticidal activity [1] of 100% and an insecticidal activity [2] of 100%.
`O=C(Nc1c(Cl)cc(C(F)(C(F)(F)F)C(F)(F)C(F)(F)F)cc1Cl)c1ccc(CNC(=O)C2CC2)cc1` (stereo not shown) [Compound 5-326] showed an insecticidal activity [1] of 100% and an insecticidal activity [2] of 100%.
`CCc1cc(C(F)(C(F)(F)F)C(F)(F)C(F)(F)F)cc(C)c1NC(=O)c1ccc(CNC(=O)CC(F)(F)F)c(I)c1` (stereo not shown) [Compound 5-198] gave an insecticidal activity [1] of 100% and an insecticidal activity [2] of 100%.
Work on `O=C(CC(F)(F)F)NCc1ccc(C(=O)Nc2c(Cl)cc(C(F)(C(F)(F)F)C(F)(F)C(F)(F)F)cc2Cl)cc1` (stereo not shown) [Compound 5-324] yielded an insecticidal activity [1] of 100% and an insecticidal activity [2] of 100%.
Molecule `CCc1cc(C(F)(C(F)(F)F)C(F)(F)F)cc(C)c1NC(=O)c1ccc(-n2cncn2)nc1` [Compound 4-2] has an insecticidal activity [1] of 100% and an insecticidal activity [2] of 100%.
`Cc1cc(C(F)(C(F)(F)F)C(F)(F)F)cc(C)c1NC(=O)c1ccc(CNC(=O)CC2CC2)cc1` [Compound 5-8] was tested, and the insecticidal activity [1] was 100% and the insecticidal activity [2] was 100%.
`CCc1cc(C(F)(C(F)(F)F)C(F)(F)F)cc(C)c1NC(=O)c1ccc(CNC(=O)C[S+](C)[O-])c(Br)c1` (stereo not shown) [Compound 5-177] showed an insecticidal activity [1] of 100% and an insecticidal activity [2] of 100%.
`CCC(=O)NCc1ccc(C(=O)Nc2c(C)cc(C(F)(C(F)(F)F)C(F)(F)C(F)(F)F)cc2CC)c(F)c1F` (stereo not shown) [Compound 5-202] showed an insecticidal activity [1] of 100% and an insecticidal activity [2] of 100%.
`Cc1cc(C(F)(C(F)(F)F)C(F)(F)F)cc(C)c1NC(=O)c1ccc(-n2cncn2)cc1Cl` [Compound 1-5] was tested, and the insecticidal activity [2] was 100%.
For `CCc1cc(C(F)(C(F)(F)F)C(F)(F)F)cc(C)c1NC(=O)c1ccc(CNC(=O)CC2CC2)c(C)c1` [Compound 5-101], the insecticidal activity [1] was 100%.
`CCC(=O)NCc1ccc(C(=O)Nc2c(C)cc(C(F)(C(F)(F)F)C(F)(F)C(F)(F)F)cc2CC)cc1I` (stereo not shown) [Compound 5-195] was tested, and the insecticidal activity [1] was 100%.
For `CCC(=O)NCc1ccc(C(=O)Nc2c(C)cc(C(F)(C(F)(F)F)C(F)(F)F)cc2CC)c(Cl)c1` [Compound 5-66], the insecticidal activity [1] was 100%.
With `CCC(=O)NCc1ccc(C(=O)Nc2c(C)cc(C(F)(C(F)(F)F)C(F)(F)F)cc2CC)c2ccccc12` [Compound 6-3] the insecticidal activity [1] was 100%.
With `CCc1cc(C(F)(C(F)(F)F)C(F)(F)F)cc(C)c1NC(=O)c1ccc(CNC(=O)c2cccc(Cl)c2)cc1` [Compound 5-38] the insecticidal activity [1] was 100%.
In the case of `CCC(=O)NCc1ccc(C(=O)Nc2c(C)cc(C(F)(C(F)(F)F)C(F)(F)C(F)(F)F)cc2C)cc1` (stereo not shown) [Compound 5-127], the insecticidal activity [2] is reported as 100%.
For `CCc1cc(C(F)(C(F)(F)F)C(F)(F)F)cc(C)c1NC(=O)c1ccc(CNC(C)=O)cc1Cl` [Compound 5-65], the insecticidal activity [2] was 100%.
`CCc1cc(C(F)(C(F)(F)F)C(F)(F)F)cc(C)c1NC(=O)c1ccc(-n2cncn2)c(CNC(C)=O)c1` [Compound 12-3, 3-(acetamidemethyl)-N-[2-ethyl-4-(1,1,1,2,3,3,3-heptafluoropropan-2-yl)-6-methylphenyl]-4-(1H-1,2,4-triazol-1-yl)benzamide] gave a pest or weed control at 100 ppm [1] of 100%.
